Assay results as given in BigSolDB 2.1.

COC(=O)c1ccccc1S(N)(=O)=O
solubility (mole fraction)
Details | in 2-butanone | in 2-pentanone | in acetone | in acetonitrile | in cyclopentanone | in ethanol | in ethyl acetate | in ethyl formate
272.15 K | – | – | – | – | – | 0.00172 | – | –
273.15 K | 0.028 | 0.0185 | 0.0414 | 0.0188 | 0.0537 | – | 0.0112 | 0.00969
278.15 K | 0.0329 | 0.0218 | 0.0483 | 0.0231 | 0.0616 | – | 0.0135 | 0.0119
278.75 K | – | – | – | – | – | 0.00252 | – | –
283.15 K | 0.0385 | 0.0256 | 0.0561 | 0.0282 | 0.0704 | 0.00322 | 0.0162 | 0.0145
287.95 K | 0.0446 | 0.0298 | 0.0643 | 0.0339 | 0.0795 | – | 0.0192 | 0.0174
288.15 K | – | – | – | – | – | 0.0042 | – | –
293.05 K | – | – | – | – | – | 0.0054 | – | –
293.85 K | 0.0529 | 0.0355 | 0.0757 | 0.0423 | 0.092 | – | 0.0236 | 0.0215
298.05 K | – | – | – | – | – | 0.00692 | – | –
298.75 K | 0.0609 | 0.0409 | 0.0863 | 0.0504 | 0.103 | – | 0.0278 | 0.0256
303.15 K | – | – | – | – | – | 0.00887 | – | –
303.45 K | 0.0691 | 0.0466 | 0.0976 | 0.0594 | 0.115 | – | 0.0323 | 0.03
308.05 K | – | – | – | – | – | 0.0112 | – | –
308.15 K | 0.0784 | 0.053 | 0.11 | 0.0695 | 0.128 | – | 0.0373 | 0.0351
312.15 K | – | – | – | – | – | 0.0134 | – | –
313.85 K | 0.0907 | 0.0617 | 0.126 | 0.0835 | 0.145 | – | 0.0444 | 0.0421
318.15 K | – | – | – | – | – | 0.0175 | – | –
318.65 K | 0.102 | 0.0695 | 0.141 | 0.0975 | 0.16 | – | 0.0509 | 0.049
324.15 K | 0.117 | 0.0797 | 0.16 | 0.115 | 0.179 | 0.0226 | 0.0596 | 0.0578
